Key:
Format in all cases: biochemical
[1] = system: Rhodospirillales bacterium URHD0017 2-hydroxyacyl-CoA lyase (RuHACL) variant G390N (RuHACL^G390N); test: Kinetics of the C1 condensation reaction of the G390N RuHACL mutant on formyl-CoA and formaldehyde; details: in vitro, formyl-CoA and formaldehyde as substrates
formaldehyde = test: Cell-free prototyping of one carbon bioconversion pathway with E. coli cell extracts; details: for performance of enzyme variant in cell-free glycolic acid pathway: mixed extracts of HACL and ACR variants, formaldehyde as sole carbon source
Protocol: Cell-free reactions for pathway prototyping contained 50 mM KPi pH 7.4, 4 mM MgCl2, 0.1 mM TPP, 2.5 mM CoASH, 5 mM NAD^+, and 50 mM formaldehyde. For time course experiments, 0.1 mM coenzyme B12 was added. Individual cell extract loading was around 4.4 g/L protein (⅛ of the reaction volume), and the amount of protein added to each reaction was normalized with BL21(DE3) extract to ˜26 g/L protein (¾ of the reaction volume). Reactions were incubated at room temperature for one hour unless otherwise specified. ¼ of the reaction volume of saturated ammonium sulfate solution acidified with 1% sulfuric acid was added to terminate the reactions. Samples were centrifuged at 20817×g for 15 minutes and the supernatant analyzed by HPLC or GC-MS as described below. For isotope labeling experiments, 13C formaldehyde (Cambridge Isotope Laboratories, Tewksbury, MA) was used.
We combined extracts of E. coli, prepared as described in the previous example(s), expressing variants of HACL and ACR to rapidly screen for the best performing combinations. […] The combination of LmACR and RuHACL enabled the production of 6.2±0.6 mM glycolic acid in 1 hr. The use of 13C-labeled formaldehyde confirmed that the observed glycolic acid was derived from the C1 substrate, judging by the +2 shift in m/z of the [M-15]^+ ion (FIG. 13C).
Quantification of product and substrate concentrations (formic acid, formaldehyde, glycolic acid, ethylene glycol, ethanol, acetic acid) were determined via HPLC using a Shimadzu Prominence SIL 20 system (Shimadzu Scientific Instruments, Inc., Columbia, MD) equipped with a refractive index detector and an HPX-87H organic acid column (Bio-Rad, Hercules, CA) with operating conditions to optimize peak separation (0.3 ml/min flowrate, 30 mM H2SO4 mobile phase, column temperature 42° C.). Compound identification and analysis was performed by GC-MS using an Agilent 7890B Series Custom Gas Chromatography system equipped with a 5977B Inert Plus Mass Selective Detector Turbo EI Bundle (for identification) and an Agilent HP-5-ms capillary column (0.25 mm internal diameter, 0.25 μm film thickness, 30 m length).

[2] = molecular target: Rhodospirillales bacterium URHD0017 2-hydroxyacyl-CoA lyase (RuHACL), wild type, UniProt: A0A1H8YFL8; test: Kinetics of RuHACL-catalyzed condensation (ligation) of acetone with formyl-CoA; details: 0.5 μM purified RuHACL, 1 mM formyl-CoA, acetone varied, 50 mM KPi pH 7.4, 2.5 mM MgCl2, 0.1 mM TPP, room temperature, 1 min; Michaelis-Menten fit
Protocol: 0.5 μM purified RuHACL was incubated with 1 mM formyl-CoA in a reaction mixture also containing 50 mM KPi pH 7.4, 2.5 mM MgCl2, and 0.1 mM TPP. The concentration of acetone was varied, and room temperature reactions were carried out for 1 min. 40 μL samples were quenched by addition of 10 μL 0.5 M NaOH and placed on ice. 12.5 μL of a saturated ammonium sulfate solution acidified with 1% sulfuric acid was added and the samples were analyzed by HPLC for the determination of the initial reaction rates after centrifugation at 20817×g for 15 minutes. […] The apparent kcat of RuHACL on acetone was 2.7±0.8 s^−1 while the KM was 1.57±0.68 M, corresponding to a catalytic efficiency of 1.7±0.9 s^−1 M^−1.

| Molecule | KM of the mutant compared to the wild type [1] | kcat of the mutant compared to the wild type [1] | performance of enzyme variant in cell-free glycolic acid pathway (formaldehyde) | also measured |
| --- | --- | --- | --- | --- |
| C=O [formaldehyde] | no significant difference | no significant difference | – | – |
| HsHACL1: 2-hydroxyacyl-CoA lyase HACL1 from Homo sapiens | – | – | enabling product synthesis | – |
| CC(C)=O [acetone] | – | – | – | apparent kcat on acetone [2]: 2.7 ± 0.8 s⁻¹ |
| CC(C)(COP(=O)(O)OP(=O)(O)OC[C@H]1O[C@@H](n2cnc3c(N)ncnc32)[C@H](O)[C@@H]1OP(=O)(O)O)[C@@H](O)C(=O)NCCC(=O)NCCSC=O [formyl-CoA] | no significant difference | no significant difference | – | – |
| OfOxc: oxalyl-CoA decarboxylase from Oxalobacter formigenes (protein, UniProt P40149 1-568, looked up) Oxalyl-CoA decarboxylase: MSNDDNVELTDGFHVLIDALKMNDIDTMYGVVGIPITNLARMWQDDGQRFYSFRHEQHAGYAASIAGYIEGKPGVCLTVSAPGFLNGVTSLAHATTNCFPMILLSGSSEREIVDLQQGDYEEMDQMNVARPHCKASFRINSIKDIPIGIARAVRTAVSGRPGGVYVDLPAKLFGQTISVEEANKLLFKPIDPAPAQIPAEDAIARAADLIKNAKRPVIMLGKGAAYAQCDDEIRALVEETGIPFLPMGMAKGLLPDNHPQSAAATRAFALAQCDVCVLIGARLNWLMQHGKGKTWGDELKKYVQIDIQANEMDSNQPIAAPVVGDIKSAVSLLRKALKGAPKADAEWTGALKAKVDGNKAKLAGKMTAETPSGMMNYSNSLGVVRDFMLANPDISLVNEGANALDNTRMIVDMLKPRKRLDSGTWGVMGIGMGYCVAAAAVTGKPVIAVEGDSAFGFSGMELETICRYNLPVTVIIMNNGGIYKGNEADPQPGVISCTRLTRGRYDMMMEAFGGKGYVANTPAELKAALEEAVASGKPCLINAMIDPDAGVESGRIKSLNVVSKVGKK | – | – | capable of catalyzing the pathway | – |
| FucO: E. coli 1,2-diol oxidoreductase, added as cell extract (protein, UniProt P0A9S1 1-382, looked up, cell extract, E. coli 1,2-diol oxidoreductase, added as cell extract) Lactaldehyde reductase: MANRMILNETAWFGRGAVGALTDEVKRRGYQKALIVTDKTLVQCGVVAKVTDKMDAAGLAWAIYDGVVPNPTITVVKEGLGVFQNSGADYLIAIGGGSPQDTCKAIGIISNNPEFADVRSLEGLSPTNKPSVPILAIPTTAGTAAEVTINYVITDEEKRRKFVCVDPHDIPQVAFIDADMMDGMPPALKAATGVDALTHAIEGYITRGAWALTDALHIKAIEIIAGALRGSVAGDKDAGEEMALGQYVAGMGFSNVGLGLVHGMAHPLGAFYNTPHGVANAILLPHVMRYNADFTGEKYRDIARVMGVKVEGMSLEEARNAAVEAVFALNRDVGIPPHLRDVGVRKEDIPALAQAALDDVCTGGNPREATLEDIVELYHTAW | – | – | – | ethylene glycol synthesis (formaldehyde; extract added to LmACR+RuHACL pathway): 2.73 ± 0.03 mM; fold increase of ethylene glycol (formaldehyde; from 1.37±0.1 mM to 2.73±0.03 mM): 2 fold |

From US12359236B2, “Production of 2-hydroxyacyl-CoAs and derivatives thereof” (Mojia Biotech Pte. Ltd., priority 2019, dated 2025)
